Values after ≈ are worked out from the molar mass of the structure shown. Values joined by “and” are separate entries in the source; they are usually repeats but may differ in a detail not shown here. Equal values may be shown once.
Experiments:
[1] = test system: Candida albicans ATCC14053; test: Broth micro-dilution screen at 16 μg/mL and MIC (Example 9); type: cell-based; conditions: for Screen at 16 μg/mL: single concentration 16 μg/mL, Growth or No growth of C. albicans ATCC14053; for MIC: C. albicans ATCC14053, test range 0.25-64 μg/mL, duplicate
Procedure: The antifungal activity of 201 NCL analogs against Candida albicans ATCC14053 in vitro was investigated. A broth micro-dilution method was used, according to CLSI guidelines as described. NCL analogs were dissolved in DMSO and originally screened at a single concentration of 16 μg/mL.

Candida parapsilosis = test: CLSI broth microdilution MIC (Example 3); type: cell-based; conditions: Candida parapsilosis ATCC 22019
Procedure: (§1) Antifungal minimum inhibitory concentration (MIC) testing was undertaken as recommended by the CLSI. Briefly, antifungal susceptibility tests were performed for amphotericin B, robenidine (NCL812) and 5 robenidine analogs (NCL062, NCL195, NCL219, NCL259, NCL265) by standard broth microdilution method (CLSI) in RPMI 1640. Various concentrations (ranging from high to low) of the selected compounds were prepared in RPMI 1640 medium by double dilution in 96-well microtitre plates. Each well contained an inoculum of approximately 2×10^3 cells/mL. The wells without addition of drugs served as negative (no inoculum) and positive (inoculum only) growth controls. Microtitre plates were incubated at 35° C. for 24-48 hours. […] Antifungal MICs were determined for each isolate in duplicate; if the values obtained were different, the MIC test was repeated a third time. Antifungal susceptibility tests were performed for amphotericin B and NCL analogs by standard broth microdilution method (CLSI). Briefly, various concentrations (ranging from high to low) of the selected compounds were prepared in RPMI 1640 medium by double dilution in the 96-well plates. Each well contained an inoculum of approximately 2×10^3 cells/mL. The wells without addition of drugs served as a negative control. Micro plates were incubated at 35° C. for 48 hour and read spectrophotometrically at 600 nm, using a microplate reader (Multiskan-EX; Thermo Elect. Corp., USA).

Candida albicans [2] = test: CLSI broth microdilution MIC (Example 3); type: cell-based
Procedure: as §1

Cryptococcus neoformans [3] = test: CLSI broth microdilution MIC (Example 4); type: cell-based
Outline: (§2)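 CLSI broth microdilution in RPMI 1640 with two-fold compound dilutions and inoculum about 2×10^3 cells/mL. Plates incubated 35° C for 24-48 hours; MICs determined in duplicate, with a third test when the duplicates differed.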

Candida albicans [4] = test: CLSI broth microdilution MIC (Example 4); type: cell-based; conditions: for antifungal activity against the two isolates of Candida albicans: summary in words
Outline: as §2

Cryptococcus neoformans [5] = test: CLSI broth microdilution MIC (Example 6); type: cell-based
Procedure: (§3) Antifungal minimum inhibitory concentration (MIC) testing was undertaken as recommended by the CLSI (1). Briefly, antifungal susceptibility tests were performed for amphotericin B, robenidine (NCL812) and 10 robenidine analogs (NCL023, NCL024, NCL097, NCL113, NCL115, NCL195, NCL219, NCL220, NCL259, NCL265) by standard broth microdilution method (CLSI) in RPMI 1640. Various concentrations (ranging from high to low) of the selected compounds were prepared in RPMI 1640 medium by double dilution in 96-well microtitre plates. Each well contained an inoculum of approximately 2×10^3 cells/mL. The wells without addition of drugs served as negative (no inoculum) and positive (inoculum only) growth controls. Microtitre plates were incubated at 35° C. for 24-48 hours. […] Antifungal MICs were determined for each isolate in duplicate; if the values obtained were different, the MIC test was repeated a third time.

Candida albicans [6] = test: CLSI broth microdilution MIC (Example 6); type: cell-based
Procedure: as §3

C. gattii = test: CLSI broth microdilution MIC (Example 6); type: cell-based, Cryptococcus gattii
Procedure: as §3

Cryptococcus neoformans [7] = test: CLSI broth microdilution MIC (Example 5); type: cell-based
Procedure: as §3, with “CLSI.” for “CLSI (1).”, “and” for “and 10”, “(NCL23, NCL24, NCL97,” for “(NCL023, NCL024, NCL097,”

Candida albicans [8] = test: CLSI broth microdilution MIC (Example 5); type: cell-based; conditions: for activity against one or more isolates of Cryptococcus neoformans and Candida albicans: summary in words
Procedure: as §3, with “CLSI.” for “CLSI (1).”, “and” for “and 10”, “(NCL23, NCL24, NCL97,” for “(NCL023, NCL024, NCL097,”

[9] = human clinical isolate C. neoformans serotype A/D hybrid
[10] = human clinical isolate C. neoformans var grubii 16-90050434
[11] = human clinical isolate C. neoformans var grubii 17-90028233
[12] = human clinical isolate C. neoformans var grubii 17-93996464
[13] = human clinical isolate C. neoformans var grubii 17-93996964
[14] = human clinical isolate C. gatti 17-90232099
[15] = human clinical isolate C. gattii 16-90050373
[16] = human clinical isolate C. gattii 17-90028211
[17] = human clinical isolate C. gattii 17-90028217
[18] = human clinical isolate C. gattii 17-90028242
[19] = clinical isolate C. albicans 12-93301752 Azole Resistant
[20] = clinical isolate C. albicans 14-90045999 Azole Resistant
[21] = clinical isolate C. albicans 15-45171061
[22] = clinical isolate C. albicans 15-91329871
[23] = clinical isolate C. albicans 16-24136919 Azole Resistant
[24] = clinical isolate C. albicans 16-46177400
[25] = clinical isolate C. albicans 16-90050810
[26] = clinical isolate C. albicans 16-90054237
[27] = clinical isolate C. albicans 18-144-00196
[28] = clinical isolate C. albicans 18-148-08188 Azole Resistant

Row | SMILES | Screen at 16 μg/mL [1] | MIC at 24-48 hours (Cryptococcus neoformans [3]; Cryptococcus neoformans SA1) | MIC at 24-48 hours (Cryptococcus neoformans [3]; Cryptococcus neoformans SA2) | MIC at 24-48 hours (Candida albicans [4]; Candida albicans ATCC 90028) | MIC at 24-48 hours (Candida albicans [4]; Candida albicans SA3) | MIC (Cryptococcus neoformans [5]; Cryptococcus neoformans SA1) | MIC (Cryptococcus neoformans [5]; Cryptococcus neoformans SA2) | MIC (Cryptococcus neoformans [5]; [9]) | MIC (Cryptococcus neoformans [5]; [10]) | MIC (Cryptococcus neoformans [5]; [11]) | MIC (Cryptococcus neoformans [5]; [12]) | MIC (Cryptococcus neoformans [5]; [13]) | MIC (Candida albicans [6]; C. albicans SA3) | MIC (Candida albicans [6]; Candida albicans ATCC 90028) | MIC (C. gattii; [14]) | MIC (C. gattii; [15]) | MIC (C. gattii; [16]) | MIC (C. gattii; [17]) | MIC (C. gattii; [18]) | MIC (Cryptococcus neoformans [7]; Cryptococcus neoformans SA1) | further results
1 | C/C(=N\NC(=N)N/N=C(\C)c1ccc(Cl)cc1)c1ccc(Cl)cc1.Cl [NCL062] | Growth | 1 µg/mL | 1 µg/mL | 1 µg/mL | 1 µg/mL | – | – | – | – | – | – | – | – | – | – | – | – | – | – | – | MIC (Candida parapsilosis; 1st): 0.5 µg/mL; MIC (Candida parapsilosis; 2nd): 1 µg/mL; MIC (Candida albicans [2]; Candida albicans ATCC 90028, 1st): 1 µg/mL; MIC (Candida albicans [2]; Candida albicans ATCC 90028, 2nd): 1 µg/mL; MIC (Candida albicans [2]; Candida albicans, 1st): 0.5 µg/mL; MIC (Candida albicans [2]; Candida albicans, 2nd): 1 µg/mL; antifungal activity against the two isolates of Candida albicans (Candida albicans [4]): high antifungal activity
2 | CN(C)c1ccc(/C=N/NC(=N)N/N=C/c2ccc(N(C)C)cc2)cc1.Cl [NCL113] | No growth | 4 µg/mL | 4 µg/mL | >32 µg/mL | >32 µg/mL | 4 µg/mL | 4 µg/mL | 4 µg/mL | 4 µg/mL | 4 µg/mL | 4 µg/mL | 4 µg/mL | >32 µg/mL | >32 µg/mL | 4 µg/mL | 2 to 4 µg/mL | 4 µg/mL | 4 to 8 µg/mL | 2 to 4 µg/mL | 4 µg/mL | MIC [1]: 4 µg/mL and 8 µg/mL; MIC (Cryptococcus neoformans [7]; Cryptococcus neoformans SA2): 4 µg/mL; MIC (Candida albicans [8]; C. albicans SA3): >32 µg/mL; MIC (Candida albicans [8]; Candida albicans ATCC 90028): >32 µg/mL; MIC (Candida albicans [8]; [19]): 8 µg/mL; MIC (Candida albicans [8]; [20]): 8 to 16 µg/mL; MIC (Candida albicans [8]; [21]): 8 µg/mL; MIC (Candida albicans [8]; [22]): 8 µg/mL; MIC (Candida albicans [8]; [23]): 8 µg/mL; MIC (Candida albicans [8]; [24]): 16 µg/mL; MIC (Candida albicans [8]; [25]): 16 µg/mL; MIC (Candida albicans [8]; [26]): 8 µg/mL; MIC (Candida albicans [8]; [27]): 8 µg/mL; MIC (Candida albicans [8]; [28]): 8 µg/mL; activity against one or more isolates of Cryptococcus neoformans and Candida albicans (Candida albicans [8]): highly active
3 | COc1ccc(C=NNC(=N)NN=Cc2ccc(OC)c(OC)c2)cc1OC.Cl [NCL115] | Growth | 8 µg/mL | 8 µg/mL | >32 µg/mL | >32 µg/mL | 8 µg/mL | 8 µg/mL | >32 µg/mL | >32 µg/mL | >32 µg/mL | >32 µg/mL | >32 µg/mL | >32 µg/mL | >32 µg/mL | >32 µg/mL | >32 µg/mL | >32 µg/mL | >32 µg/mL | >32 µg/mL | 8 µg/mL | MIC (Cryptococcus neoformans [7]; Cryptococcus neoformans SA2): 8 µg/mL; MIC (Candida albicans [8]; C. albicans SA3): >32 µg/mL; MIC (Candida albicans [8]; Candida albicans ATCC 90028): >32 µg/mL; MIC (Candida albicans [8]; [19]): >16 µg/mL; MIC (Candida albicans [8]; [20]): 8 µg/mL; MIC (Candida albicans [8]; [21]): >16 µg/mL; MIC (Candida albicans [8]; [22]): >16 µg/mL; MIC (Candida albicans [8]; [23]): >16 µg/mL; MIC (Candida albicans [8]; [24]): >16 µg/mL; MIC (Candida albicans [8]; [25]): >16 µg/mL; MIC (Candida albicans [8]; [26]): >16 µg/mL; MIC (Candida albicans [8]; [27]): >16 µg/mL; MIC (Candida albicans [8]; [28]): >16 µg/mL; activity against one or more isolates of Cryptococcus neoformans and Candida albicans (Candida albicans [8]): highly active
4 | Nc1nc(NN=Cc2ccc(F)cc2)cc(NN=Cc2ccc(F)cc2)n1 [NCL220] | Growth | 2 µg/mL (≈ 5.44 µM) | 4 µg/mL (≈ 10.9 µM) | 32 µg/mL (≈ 87.1 µM) | 32 µg/mL (≈ 87.1 µM) | 2 µg/mL (≈ 5.44 µM) | 4 µg/mL (≈ 10.9 µM) | 32 µg/mL (≈ 87.1 µM) | 32 µg/mL (≈ 87.1 µM) | >32 µg/mL | 32 µg/mL (≈ 87.1 µM) | 32 µg/mL (≈ 87.1 µM) | 32 µg/mL (≈ 87.1 µM) | 32 µg/mL (≈ 87.1 µM) | 4 µg/mL (≈ 10.9 µM) | >32 µg/mL | 32 µg/mL (≈ 87.1 µM) | 4 µg/mL (≈ 10.9 µM) | 32 µg/mL (≈ 87.1 µM) | 2 µg/mL (≈ 5.44 µM) | MIC [1]: >64 µg/mL; antifungal activity against the two isolates of Candida albicans (Candida albicans [4]): high antifungal activity; MIC (Cryptococcus neoformans [7]; Cryptococcus neoformans SA2): 4 µg/mL (≈ 10.9 µM); MIC (Candida albicans [8]; C. albicans SA3): 32 µg/mL (≈ 87.1 µM); MIC (Candida albicans [8]; Candida albicans ATCC 90028): 32 µg/mL (≈ 87.1 µM); MIC (Candida albicans [8]; [19]): 4 µg/mL (≈ 10.9 µM); MIC (Candida albicans [8]; [20]): >16 µg/mL; MIC (Candida albicans [8]; [21]): >16 µg/mL; MIC (Candida albicans [8]; [22]): 8 µg/mL (≈ 21.8 µM); MIC (Candida albicans [8]; [23]): 4 µg/mL (≈ 10.9 µM); MIC (Candida albicans [8]; [24]): >16 µg/mL; MIC (Candida albicans [8]; [25]): >16 µg/mL; MIC (Candida albicans [8]; [26]): 8 µg/mL (≈ 21.8 µM); MIC (Candida albicans [8]; [27]): 8 µg/mL (≈ 21.8 µM); MIC (Candida albicans [8]; [28]): 4 µg/mL (≈ 10.9 µM); activity against one or more isolates of Cryptococcus neoformans and Candida albicans (Candida albicans [8]): highly active

From US20230310388A1, “Methods and Compositions for Treating Fungal Infections” (Neoculi Pty Ltd, priority 2020, published 2023)
